Source: patent US20240254218A1 (ICAHN SCHOOL OF MEDICINE AT MOUNT SINAI, priority 2021, published 2024)

Experiments:
[1] = tested on: FSHR signaling; assay: Pathway inhibitors on FSH-induced signalling in SH-SY5Y cells; format: cell-based, human; settings: FSH 30 ng/ml 30 minutes; for FSH-induced AEP activation (cleavage and phosphorylation) / FSH-induced C/EBPβ activation/expression / FSH-induced AKT phosphorylation: PTX 50 ng/ml; for FSH-induced AEP activation (cleavage and phosphorylation) / FSH-induced C/EBPβ activation/expression / FSH-induced SRPK2 phosphorylation/activation: AKTi-1/2 10 μM; for FSH-induced AEP activation (cleavage and phosphorylation) / FSH-induced C/EBPβ activation/expression / FSH-induced AKT phosphorylation / FSH-induced SRPK2 phosphorylation/activation: PD98059 10 μM
Source text: Of note, MAPK-induced phosphorylation of residue T188 of C/EBPβ regulates its transcriptional activity (Ramji, D. P. & Foka, P. Biochem J 365, 561-575, (2002)). Likewise, AKT phosphorylates SRPK2, which, in turn, activates AEP by phosphorylating residue S266. […] Pertussis toxin inhibited FSH-induced C/EBPβ and AEP activation and AKT phosphorylation (FIG. 2E). […] In contrast, while the MEK1 inhibitor PD98059 blocked FSH-induced C/EBPβ, AEP and SRPK2 activation, AKT was unaffected (FIG. 2E).

[2] = biological target: T1, FSH receptor (FSHR) (Homo sapiens, UniProt P23945); settings: cited from earlier work
T1 sequence (P23945 18-695): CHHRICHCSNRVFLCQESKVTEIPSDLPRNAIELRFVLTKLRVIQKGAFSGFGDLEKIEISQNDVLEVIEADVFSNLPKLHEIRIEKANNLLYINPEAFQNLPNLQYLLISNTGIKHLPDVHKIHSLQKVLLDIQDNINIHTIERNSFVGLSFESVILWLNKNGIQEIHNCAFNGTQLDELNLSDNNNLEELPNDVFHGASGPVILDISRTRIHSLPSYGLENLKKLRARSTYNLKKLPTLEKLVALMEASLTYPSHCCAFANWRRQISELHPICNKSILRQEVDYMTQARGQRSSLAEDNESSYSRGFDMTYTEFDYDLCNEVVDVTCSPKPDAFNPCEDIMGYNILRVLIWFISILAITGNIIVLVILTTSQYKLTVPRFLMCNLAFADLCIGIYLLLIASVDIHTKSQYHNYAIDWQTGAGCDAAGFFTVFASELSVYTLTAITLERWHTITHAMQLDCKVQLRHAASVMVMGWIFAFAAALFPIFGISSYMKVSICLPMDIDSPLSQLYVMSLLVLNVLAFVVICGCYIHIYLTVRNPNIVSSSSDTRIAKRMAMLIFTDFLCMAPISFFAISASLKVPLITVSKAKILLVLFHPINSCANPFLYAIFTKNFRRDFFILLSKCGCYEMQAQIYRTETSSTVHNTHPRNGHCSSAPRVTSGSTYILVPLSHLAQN

| Molecule | FSH-induced AEP activation (cleavage and phosphorylation) [1] | FSH-induced C/EBPβ activation/expression [1] | FSH-induced AKT phosphorylation [1] | FSH-induced SRPK2 phosphorylation/activation [1] | effect on any signaling molecule ([1]; SQ22536 100 μM) | mode of action on the FSH receptor (FSHR) [2] |
| --- | --- | --- | --- | --- | --- | --- |
| pertussis toxin | inhibited | inhibited | inhibited |  |  |  |
| COc1cccc(-c2cc(=O)c3ccccc3o2)c1N [PD98059] | blocked | blocked | unaffected | blocked |  |  |
| Nc1ncnc2c1ncn2C1CCCO1 (stereo not drawn) [SQ22536] |  |  |  |  | Absence of an effect |  |
| COc1ccc(N=Nc2c(S(=O)(=O)[O-])cc3cc(Nc4nc(Cl)nc(N(CCC(N)=O)CCC(N)=O)n4)ccc3c2O)cc1.[Na+] [7-[4-[Bis-(2-carbamoyl-ethyl)-amino]-6-chloro-(1,3,5)-triazin-2-ylamino)-4-hydroxy-3-(4-methoxy-phenylazo)-naphthalene]-2-sulfonic acid, sodium salt] |  |  |  |  |  | selective, noncompetitive inhibitor |
| O=c1[nH]c2ccccc2n1C1CCN(Cc2ccc(-c3nc4cc5nc[nH]c5cc4nc3-c3ccccc3)cc2)CC1 [AKTi-1/2] | attenuated | attenuated |  | attenuated |  |  |
